In patent US20030224026A1, “Dermatological or cosmetic composition which includes aromatic nitroxide compounds and their use” (priority 2002, published 2003):

How the values were obtained:
[1] = Peroxidation of unilamellar PC liposomes induced by Bu^tOOH/Cytochrome C, oxygen consumption (oxygraph); details: for inhibition of oxygen consumption: 5 μM nitroxide added 80 s after onset, 2.4 mM unilamellar PC liposomes, PBS pH 7.4, 37° C., 6 minutes
Method: Oxidation was induced by injecting at point A, 25 μl of Bu^tOOH 7.3 M and injecting at point B 25 μl of cytochrome C (1 mg protein/ml). Point C refers to the addition of 5 μM of the following compounds (if not specified otherwise):
The compounds are indicated with the following abbreviations: MC4, the compound with formula (I) in which R=C4 alkyl residue; DC4, the compound with formula (I) in which R=(X) and (X) contains R1=C4 methylenic alkyl residue; MC8, the compound with formula (I) in which R=C8 alkyl residue; DC8, the compound with formula (I) in which R=(X) and (X) contains R1=C8 methylenic alkyl residue; TEMPO and TDN. With reference to FIG. 2, the percentage inhibition of the consumption of oxygen in PC unilamellar liposome (2.4 mM) in 5 mM phosphate buffer saline, 0.1 mM EDTA, pH 7.4 at 37° C. to which 5 μM nitroxide compounds was added are reported.
The Applicant has selected certain nitroxide radicals as antioxidant agents following experimental tests. The antioxidant properties were studied in the laboratory in different biological systems. The systems employed are biological systems which mimic in vivo ones. The biological systems used are subjected to oxidative damage. Oxidative damage was induced in various ways. The Applicant carried out an experimental test to evaluate the peroxidation of unilamellar PC liposomes induced by the use of the Bu^tOOH/Cytochrome C system. […]
After 80 seconds from the onset of peroxidation, the different nitroxide radicals at final concentration of 5 μM were added. […] The reaction was monitored for 6 minutes. For each nitroxide tested, the extent of inhibition of the consumption of oxygen was calculated. The value of inhibition was calculated in the following way: […]
Each individual recording is reported in FIG. 1, since the rate of oxygen consumption before the addition of the antioxidant compounds at point C is always constant. From these experiments, the percentage inhibition of oxygen consumption was calculated by subtraction as reported above.

[2] = Peroxidation of multilamellar PC liposomes with incorporated nitroxides, induced by Bu^tOOH/Cytochrome C, oxygen consumption; details: 22 μM nitroxide incorporated inside 0.77 mM multilamellar liposomes; pH 7.4, 37° C., 5 minutes
Method: The compounds are indicated with the abbreviations: MC4, DC4, TEMPO and TDN as defined for FIG. 2. With reference to FIG. 4, the percentage inhibition of the consumption of oxygen was obtained from measurements carried out on an oxygraph. The system studied consists of multilamellar PC liposomes which have nitroxides incorporated inside them ([…]) in 5 mM phosphate buffer saline, 0.1 mM EDTA, pH 7.4 at 37° C.
The Applicant carried out an experimental test to evaluate the peroxidation of multilamellar PC liposomes, induced through the Bu^tOOH/Cytochrome C system.
The liposomes employed in this experimental system contain inside them the antioxidant agents. […] The peroxidation of these liposomes was evaluated by monitoring the consumption of oxygen in a final volume of 1.8 ml and at a constant temperature of 37° C. in 5 mM of phosphate buffer saline, 0.1 mM EDTA, pH 7.4 as previously described.
The final concentration of the liposomes and of antioxidant agents, in the oxidation chamber, was 0.77 mM and 22 μM respectively. […] The consumption of oxygen was monitored for 5 minutes. For each of the nitroxides tested, the degree of suppression of oxygen consumption was calculated. […]

Molecule	inhibition of oxygen consumption [1]	protective effects against lipid peroxidation ([1]; higher concentration than 5 μM, same experimental conditions)	inhibited peroxidation (percentage of inhibition of oxygen consumption) [2]
CC1(C)CCCC(C)(C)N1[O] [TEMPO, 2,2,6,6-tetramethylpiperidine-1-oxyl]	no protective effects	no protective effects	no effect
bis(2,2,6,6-tetramethylpiperidine-1-oxyl-4-yl)sebacate [TDN]	lower inhibition values with respect to DC4		45%
